Reference: the CheMixHub viscosity set
Values joined by “and” are separate entries in the source; they are usually repeats but may differ in a detail not shown here. Equal values may be shown once.

Columns and labels:
[1] = xn = mol fraction of the nth substance listed

C1CCCCCC1
Details	viscosity [mPa·s]
303.15 K, 101 kPa	1.239

ClCCCl
Details	viscosity
293.15 K, 101 kPa	0.8397 mPa·s
298 K, 101.33 kPa	0.77 mPa·s
303 K, 101.33 kPa	0.722 mPa·s
303.15 K, 101.3 kPa	0.73 mPa·s
303.15 K, 101.33 kPa	0.7295 mPa·s and 0.7295 mPa·s
308.15 K, 100 kPa	0.682 mPa·s
308.15 K, 101 kPa	0.6929 mPa·s
313 K, 101.33 kPa	0.639 mPa·s
323 K, 101.33 kPa	0.573 mPa·s
323.15 K, 101 kPa	0.5724 mPa·s

CC[NH+](C)CC.CS(=O)(=O)[O-] + O
Details	viscosity [mPa·s]
[1], 318.15 K, 100 kPa, x1 = 0.4263	15.65

ClCCCl + CCCCCO
[1], 303.15 K, 101 kPa
Details	viscosity [mPa·s]
x1 = 0.1509	2.002
x1 = 0.3002	1.472
x1 = 0.4539	1.111
x1 = 0.6003	0.906
x1 = 0.7472	0.777
x1 = 0.8986	0.706

CCCCCCCC[n+]1ccccc1.F[B-](F)(F)F
101.3 kPa
Details	viscosity [mPa·s]
293.15 K	319.7
298.15 K	233.5
303.15 K	171.9
308.15 K	134.8
313.15 K	105.7
318.15 K	81.56
323.15 K	64.89

COCC(C)OCC(C)OC (stereo unspecified) + CCCCCO
Details	viscosity [mPa·s]
[1], 298.15 K, 101 kPa, x1 = 0.4941	1.345

CCOC(N)=O + c1ccncc1
[1], 298.15 K, 101 kPa
Details	viscosity [mPa·s]
x1 = 0.0815	1.07
x1 = 0.1351	1.202

CC(=O)O + ClC(Cl)Cl
[1]
Details	viscosity [mPa·s]
298.15 K, 101.33 kPa, x2 = 0.0468	1.087
298.15 K, 101.33 kPa, x2 = 0.1013	0.997
298.15 K, 101.33 kPa, x2 = 0.1021	1.022
298.15 K, 101.33 kPa, x2 = 0.1487	0.954
298.15 K, 101.33 kPa, x2 = 0.203	0.925
298.15 K, 101.33 kPa, x2 = 0.2312	0.882
298.15 K, 101.33 kPa, x2 = 0.2997	0.837
298.15 K, 101.33 kPa, x2 = 0.3403	0.805
298.15 K, 101.33 kPa, x2 = 0.4207	0.759
298.15 K, 101.33 kPa, x2 = 0.4784	0.731
298.15 K, 101.33 kPa, x2 = 0.5017	0.717
298.15 K, 101.33 kPa, x2 = 0.5627	0.68
298.15 K, 101.33 kPa, x2 = 0.6215	0.657
298.15 K, 101.33 kPa, x2 = 0.7312	0.613
298.15 K, 101.33 kPa, x2 = 0.8031	0.589
298.15 K, 101.33 kPa, x2 = 0.8931	0.56
303.15 K, 101 kPa, x2 = 0.0819	0.8986
303.15 K, 101 kPa, x2 = 0.25	0.7244
303.15 K, 101 kPa, x2 = 0.7464	0.5285
313.15 K, 101 kPa, x2 = 0.0819	0.8287
313.15 K, 101 kPa, x2 = 0.25	0.6532
313.15 K, 101 kPa, x2 = 0.7464	0.484
323.15 K, 101 kPa, x2 = 0.0819	0.7516
323.15 K, 101 kPa, x2 = 0.25	0.5982
323.15 K, 101 kPa, x2 = 0.7464	0.4537

CCNc1ccccc1 + CCCCOCCO
viscosity [mPa·s], [1], 101.3 kPa
Details	x2 = 0.1017	x2 = 0.2027	x2 = 0.3026	x2 = 0.398	x2 = 0.5004	x2 = 0.5947	x2 = 0.701	x2 = 0.7971	x2 = 0.8933
298 K	2.077	2.172	2.259	2.361	2.486	2.573	2.686	2.758	2.786
303 K	1.774	1.855	1.929	2.039	2.14	2.214	2.313	2.38	2.404
308 K	1.59	1.662	1.725	1.801	1.889	1.961	2.048	2.111	2.145
313 K	1.43	1.498	1.537	1.615	1.693	1.746	1.824	1.883	1.91
318 K	1.298	1.358	1.383	1.443	1.51	1.552	1.616	1.674	1.696

ClCCl + CC(=O)c1ccccc1
[1], 298.15 K, 101 kPa
Details	viscosity [mPa·s]
x2 = 0.0728	0.5046
x2 = 0.1501	0.5598
x2 = 0.2324	0.6209
x2 = 0.3201	0.6967
x2 = 0.4139	0.7804
x2 = 0.5144	0.8931
x2 = 0.6224	1.036
x2 = 0.7386	1.212
x2 = 0.8641	1.422

ClCCCl + COCCO
[1], 298 K, 101.33 kPa
Details	viscosity [mPa·s]
x2 = 0.1031	0.803
x2 = 0.1362	0.811
x2 = 0.2067	0.83
x2 = 0.2908	0.882
x2 = 0.395	0.954
x2 = 0.5147	1.059
x2 = 0.5965	1.138
x2 = 0.6926	1.232
x2 = 0.7409	1.28
x2 = 0.9141	1.458

CC(=O)O + C1CCOC1
[1], 298.15 K, 101 kPa
Details	viscosity [mPa·s]
x2 = 0.0847	1.112
x2 = 0.1723	1.087
x2 = 0.263	1.04
x2 = 0.357	0.9739
x2 = 0.4544	0.8952
x2 = 0.5554	0.8054
x2 = 0.6602	0.7083
x2 = 0.7691	0.6103
x2 = 0.8823	0.5294
